Starred links: 1 amine or outer side, 2 acyl side, 3 side chain; linkers in the order of their positions; H or OH if unused. Non-standard residues stand in square brackets, D forms with d. Residues, ends and D or L forms follow the SMILES beside them. Ala(2-carboxypyrimidin-5-yl) = N[C@@H](Cc1cnc(C(=O)O)nc1)C(=O)O; dPro(4R-(4-pyridylmethyl)) = O=C(O)[C@H]1C[C@@H](Cc2ccncc2)CN1; Trp(βS-Me,4-F) = C[C@@H](c1c[nH]c2cccc(F)c12)[C@H](N)C(=O)O; Bip(4'-COOH) = N[C@@H](Cc1ccc(-c2ccc(C(=O)O)cc2)cc1)C(=O)O; dPro(3S-(4-F-Bn)) = O=C(O)[C@@H]1NCC[C@@H]1Cc1ccc(F)cc1; X41 = O=C([C@@H](N[*:1])[C@@H](O)c1ccncc1)[*:2]; Ala(pyrimidin-5-yl) = N[C@@H](Cc1cncnc1)C(=O)O; Phe(4-COOH) = N[C@@H](Cc1ccc(C(=O)O)cc1)C(=O)O; X24 = NC(=O)c1ncc(C[C@H](N[*:1])C(=O)[*:2])cn1; Bip = N[C@@H](Cc1ccc(-c2ccccc2)cc1)C(=O)O; Pro(cis-4-F) = O=C(O)[C@@H]1C[C@H](F)CN1; Met(O2) = CS(=O)(=O)CC[C@H](N)C(=O)O; d(αMeF) = C[C@@](N)(Cc1ccccc1)C(=O)O; hTyr = N[C@@H](CCc1ccc(O)cc1)C(=O)O; cisHyp = O=C(O)[C@@H]1C[C@H](O)CN1; d(αMeD) = C[C@@](N)(CC(=O)O)C(=O)O; 4Pal = N[C@@H](Cc1ccncc1)C(=O)O; aThr = C[C@H](O)[C@H](N)C(=O)O; d(αMeS) = C[C@@](N)(CO)C(=O)O; NMeDab = CN[C@@H](CCN)C(=O)O; Dab = NCC[C@H](N)C(=O)O; Aib = CC(C)(N)C(=O)O
molecular target: T1, IL-1β (Homo sapiens, UniProt P01584); test: IL-6 assay in MRC5 cells: inhibition of IL-1β induced IL-6 secretion (AlphaLISA); format: cell-based; conditions: inhibition of IL-1β induced IL-6 secretion in MRC5 cells; compound pre-incubated 1 hour with recombinant human IL-1β; read-out: MRC5 IC50
T1 construct: purchased BioLegend 579404
T1 sequence (P01584 117-269): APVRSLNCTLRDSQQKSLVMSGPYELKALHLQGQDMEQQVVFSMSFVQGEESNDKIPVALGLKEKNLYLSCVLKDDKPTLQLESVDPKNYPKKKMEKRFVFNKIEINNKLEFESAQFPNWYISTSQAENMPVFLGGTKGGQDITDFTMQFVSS
Summary of the method: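 Compound was pre-incubated 1 h at ambient temperature with recombinant human IL-1β at 2λ EC80 before adding human lung fibroblast MRC5 cells (3000/well) in EMEM with 0.025% BSA. After overnight culture at 37 °C, 5% CO2, secreted IL-6 in conditioned medium was measured by AlphaLISA; IC50 from 4-parameter logistic fits.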

IC50 [nM]	SMILES
0.012	C[C@@H](c1c[nH]c2cccc(F)c12)[C@@H]1NC(=O)[C@@H]2C[C@H](F)CN2C(=O)CNC(=O)[C@H](Cc2ccc(C(=O)O)cc2)NC(=O)[C@H](Cc2ccncc2)NC(=O)[C@H](Cc2ccc(-c3ccc(C(=O)O)cc3)cc2)NC(=O)[C@H]2C[C@@H](Cc3ccncc3)CN2C(=O)CNC(=O)[C@H](CCN)NC(=O)[C@H](CCC(N)=O)NC(=O)[C@H](CCc2ccc(O)cc2)NC(=O)[C@@](C)(CC(=O)O)NC(=O)[C@H](Cc2c[nH]c3ccccc23)NC(=O)[C@H](CO)NC(=O)C(C)(C)NC1=O [Example 256] (cyclo([Bip(4'-COOH)][4Pal][Phe(4-COOH)]G[Pro(cis-4-F)][Trp(βS-Me,4-F)][Aib]SW[d(αMeD)][hTyr]Q[Dab]G[dPro(4R-(4-pyridylmethyl))]))
0.021	C[C@H](O)[C@@H]1NC(=O)[C@@](C)(Cc2ccccc2)NC(=O)[C@H](Cc2c[nH]c3ccccc23)NC(=O)[C@H](CO)NC(=O)C(C)(C)NC(=O)[C@H]([C@@H](C)c2c[nH]c3cccc(F)c23)NC(=O)[C@@H]2C[C@H](F)CN2C(=O)CNC(=O)[C@H](Cc2ccc(C(=O)O)cc2)NC(=O)[C@H](Cc2ccncc2)NC(=O)[C@H](Cc2ccc(-c3ccc(C(=O)O)cc3)cc2)NC(=O)[C@H]2C[C@@H](Cc3ccncc3)CN2C(=O)CNC(=O)[C@H](CCN)NC(=O)[C@H](CCC(N)=O)NC1=O [Example 257] (cyclo([Bip(4'-COOH)][4Pal][Phe(4-COOH)]G[Pro(cis-4-F)][Trp(βS-Me,4-F)][Aib]SW[d(αMeF)][aThr]Q[Dab]G[dPro(4R-(4-pyridylmethyl))]))
0.02	C[C@@H](c1c[nH]c2cccc(F)c12)[C@@H]1NC(=O)[C@@H]2C[C@H](F)CN2C(=O)CNC(=O)[C@H](Cc2ccc(C(=O)O)cc2)NC(=O)[C@H](Cc2ccncc2)NC(=O)[C@H](Cc2ccc(-c3ccc(C(=O)O)cc3)cc2)NC(=O)[C@H]2C[C@@H](Cc3ccncc3)CN2C(=O)CNC(=O)[C@H](CCN)NC(=O)[C@H](CCC(N)=O)NC(=O)[C@H](CCC(=O)O)NC(=O)[C@@](C)(Cc2ccccc2)NC(=O)[C@H](Cc2c[nH]c3ccccc23)NC(=O)[C@H](CO)NC(=O)C(C)(C)NC1=O [Example 258] (cyclo([Bip(4'-COOH)][4Pal][Phe(4-COOH)]G[Pro(cis-4-F)][Trp(βS-Me,4-F)][Aib]SW[d(αMeF)]EQ[Dab]G[dPro(4R-(4-pyridylmethyl))]))
0.014	C[C@@H](c1c[nH]c2cccc(F)c12)[C@@H]1NC(=O)[C@@H]2C[C@H](F)CN2C(=O)CNC(=O)[C@H](Cc2ccc(C(=O)O)cc2)NC(=O)[C@H](Cc2ccncc2)NC(=O)[C@H](Cc2ccc(-c3ccc(C(=O)O)cc3)cc2)NC(=O)[C@H]2C[C@@H](Cc3ccncc3)CN2C(=O)CNC(=O)[C@H](CCN)NC(=O)[C@H](CCC(N)=O)NC(=O)[C@H](CC(=O)O)NC(=O)[C@@](C)(Cc2ccccc2)NC(=O)[C@H](Cc2c[nH]c3ccccc23)NC(=O)[C@H](CO)NC(=O)C(C)(C)NC1=O [Example 259] (cyclo([Bip(4'-COOH)][4Pal][Phe(4-COOH)]G[Pro(cis-4-F)][Trp(βS-Me,4-F)][Aib]SW[d(αMeF)]DQ[Dab]G[dPro(4R-(4-pyridylmethyl))]))
0.013	COC[C@@]1(C)NC(=O)[C@H](Cc2c[nH]c3ccccc23)NC(=O)[C@H](CO)NC(=O)C(C)(C)NC(=O)[C@H]([C@@H](C)c2c[nH]c3cccc(F)c23)NC(=O)[C@@H]2C[C@H](F)CN2C(=O)CNC(=O)[C@H](Cc2ccc(C(=O)O)cc2)NC(=O)[C@H](Cc2ccncc2)NC(=O)[C@H](Cc2ccc(-c3ccc(C(=O)O)cc3)cc2)NC(=O)[C@H]2C[C@@H](Cc3ccncc3)CN2C(=O)CNC(=O)[C@H](CCN)NC(=O)[C@H](CCC(N)=O)NC(=O)[C@H](Cc2cncnc2)NC1=O [Example 260] (cyclo([Bip(4'-COOH)][4Pal][Phe(4-COOH)]G[Pro(cis-4-F)][Trp(βS-Me,4-F)][Aib]SW[d(αMeS)](Me)[Ala(pyrimidin-5-yl)]Q[Dab]G[dPro(4R-(4-pyridylmethyl))]))
0.017	COC[C@@]1(C)NC(=O)[C@H](Cc2c[nH]c3ccccc23)NC(=O)[C@H](CO)NC(=O)C(C)(C)NC(=O)[C@H]([C@@H](C)c2c[nH]c3cccc(F)c23)NC(=O)[C@@H]2C[C@H](F)CN2C(=O)CNC(=O)[C@H](Cc2ccc(C(=O)O)cc2)NC(=O)[C@H](Cc2ccncc2)NC(=O)[C@H](Cc2ccc(-c3ccc(C(=O)O)cc3)cc2)NC(=O)[C@H]2C[C@@H](Cc3ccncc3)CN2C(=O)CNC(=O)[C@H](CCN)NC(=O)[C@H](CCC(N)=O)NC(=O)[C@H]([C@H](C)O)NC1=O [Example 261] (cyclo([Bip(4'-COOH)][4Pal][Phe(4-COOH)]G[Pro(cis-4-F)][Trp(βS-Me,4-F)][Aib]SW[d(αMeS)](Me)[aThr]Q[Dab]G[dPro(4R-(4-pyridylmethyl))]))
0.02	C[C@@H](c1c[nH]c2cccc(F)c12)[C@@H]1NC(=O)[C@@H]2C[C@H](F)CN2C(=O)CNC(=O)[C@H](Cc2ccc(C(=O)O)cc2)NC(=O)[C@H](Cc2ccncc2)NC(=O)[C@H](Cc2ccc(-c3ccc(C(=O)O)cc3)cc2)NC(=O)[C@H]2C[C@@H](Cc3ccncc3)CN2C(=O)CNC(=O)[C@H](CCN)N(C)C(=O)[C@H](CCC(N)=O)NC(=O)[C@H](Cc2cncnc2)NC(=O)C(C)(C)NC(=O)[C@H](Cc2c[nH]c3ccccc23)NC(=O)[C@H](CO)NC(=O)C(C)(C)NC1=O [Example 262] (cyclo([Bip(4'-COOH)][4Pal][Phe(4-COOH)]G[Pro(cis-4-F)][Trp(βS-Me,4-F)][Aib]SW[Aib][Ala(pyrimidin-5-yl)]Q[NMeDab]G[dPro(4R-(4-pyridylmethyl))]))
0.017	C[C@@H](c1c[nH]c2cccc(F)c12)[C@@H]1NC(=O)[C@@H]2C[C@H](F)CN2C(=O)CNC(=O)[C@H](Cc2ccc(C(=O)O)cc2)NC(=O)[C@H](Cc2ccncc2)NC(=O)[C@H](Cc2ccc(-c3ccc(C(=O)O)cc3)cc2)NC(=O)[C@H]2[C@@H](Cc3ccc(F)cc3)CCN2C(=O)CNC(=O)[C@H](CCN)NC(=O)[C@H](CCC(N)=O)NC(=O)[C@H]([C@@H](O)c2ccncc2)NC(=O)[C@@](C)(CC(=O)O)NC(=O)[C@H](Cc2c[nH]c3ccccc23)NC(=O)[C@H](CO)NC(=O)C(C)(C)NC1=O [Example 263] (cyclo([Bip(4'-COOH)][4Pal][Phe(4-COOH)]G[Pro(cis-4-F)][Trp(βS-Me,4-F)][Aib]SW[d(αMeD)][X41]Q[Dab]G[dPro(3S-(4-F-Bn))]))
0.017	C[C@@H](c1c[nH]c2cccc(F)c12)[C@@H]1NC(=O)[C@@H]2C[C@H](O)CN2C(=O)CNC(=O)[C@H](Cc2ccc(C(=O)O)cc2)NC(=O)[C@H](Cc2ccncc2)NC(=O)[C@H](Cc2ccc(-c3ccccc3)cc2)NC(=O)[C@H]2C[C@@H](Cc3ccncc3)CN2C(=O)CNC(=O)[C@H](CCN)NC(=O)[C@H](CCC(N)=O)NC(=O)[C@H](Cc2cncnc2)NC(=O)[C@@](C)(CC(=O)O)NC(=O)[C@H](Cc2c[nH]c3ccccc23)NC(=O)[C@H](CO)NC(=O)C(C)(C)NC1=O [Example 264] (cyclo([Bip][4Pal][Phe(4-COOH)]G[cisHyp][Trp(βS-Me,4-F)][Aib]SW[d(αMeD)][Ala(pyrimidin-5-yl)]Q[Dab]G[dPro(4R-(4-pyridylmethyl))]))
0.022	C[C@@H](c1c[nH]c2cccc(F)c12)[C@@H]1NC(=O)[C@@H]2C[C@H](F)CN2C(=O)CNC(=O)[C@H](Cc2ccc(C(=O)O)cc2)NC(=O)[C@H](Cc2ccncc2)NC(=O)[C@H](Cc2ccc(-c3ccccc3)cc2)NC(=O)[C@H]2C[C@@H](Cc3ccncc3)CN2C(=O)CNC(=O)[C@H](CCN)NC(=O)[C@H](CCC(N)=O)NC(=O)[C@@H](CC(=O)O)NC(=O)C(C)(C)NC(=O)[C@H](Cc2c[nH]c3ccccc23)NC(=O)[C@H](CO)NC(=O)C(C)(C)NC1=O [Example 265] (cyclo([Bip][4Pal][Phe(4-COOH)]G[Pro(cis-4-F)][Trp(βS-Me,4-F)][Aib]SW[Aib][dD]Q[Dab]G[dPro(4R-(4-pyridylmethyl))]))
0.019	C[C@@H](c1c[nH]c2cccc(F)c12)[C@@H]1NC(=O)[C@@H]2C[C@H](F)CN2C(=O)CNC(=O)[C@H](Cc2ccc(C(=O)O)cc2)NC(=O)[C@H](Cc2ccncc2)NC(=O)[C@H](Cc2ccc(-c3ccc(C(=O)O)cc3)cc2)NC(=O)[C@H]2C[C@@H](Cc3ccncc3)CN2C(=O)CNC(=O)[C@H](CCN)NC(=O)[C@H](CCC(N)=O)NC(=O)[C@H](CCS(C)(=O)=O)NC(=O)C(C)(C)NC(=O)[C@H](Cc2c[nH]c3ccccc23)NC(=O)[C@H](CO)NC(=O)C(C)(C)NC1=O [Example 266] (cyclo([Bip(4'-COOH)][4Pal][Phe(4-COOH)]G[Pro(cis-4-F)][Trp(βS-Me,4-F)][Aib]SW[Aib][Met(O2)]Q[Dab]G[dPro(4R-(4-pyridylmethyl))]))
0.014	C[C@@H](c1c[nH]c2cccc(F)c12)[C@@H]1NC(=O)[C@@H]2C[C@H](F)CN2C(=O)CNC(=O)[C@H](Cc2ccc(C(=O)O)cc2)NC(=O)[C@H](Cc2ccncc2)NC(=O)[C@H](Cc2ccc(-c3ccc(C(=O)O)cc3)cc2)NC(=O)[C@H]2C[C@@H](Cc3ccncc3)CN2C(=O)CNC(=O)[C@H](CCN)NC(=O)[C@H](CCC(N)=O)NC(=O)[C@H](Cc2cnc(C(N)=O)nc2)NC(=O)C(C)(C)NC(=O)[C@H](Cc2c[nH]c3ccccc23)NC(=O)[C@H](CO)NC(=O)C(C)(C)NC1=O [Example 267] (cyclo([Bip(4'-COOH)][4Pal][Phe(4-COOH)]G[Pro(cis-4-F)][Trp(βS-Me,4-F)][Aib]SW[Aib][X24]Q[Dab]G[dPro(4R-(4-pyridylmethyl))]))
0.014	C[C@@H](c1c[nH]c2cccc(F)c12)[C@@H]1NC(=O)[C@@H]2C[C@H](F)CN2C(=O)CNC(=O)[C@H](Cc2ccc(C(=O)O)cc2)NC(=O)[C@H](Cc2ccncc2)NC(=O)[C@H](Cc2ccc(-c3ccc(C(=O)O)cc3)cc2)NC(=O)[C@H]2C[C@@H](Cc3ccncc3)CN2C(=O)CNC(=O)[C@H](CCN)NC(=O)[C@H](CCC(N)=O)NC(=O)[C@H](Cc2cnc(C(=O)O)nc2)NC(=O)C(C)(C)NC(=O)[C@H](Cc2c[nH]c3ccccc23)NC(=O)[C@H](CO)NC(=O)C(C)(C)NC1=O [Example 268] (cyclo([Bip(4'-COOH)][4Pal][Phe(4-COOH)]G[Pro(cis-4-F)][Trp(βS-Me,4-F)][Aib]SW[Aib][Ala(2-carboxypyrimidin-5-yl)]Q[Dab]G[dPro(4R-(4-pyridylmethyl))]))
